Test results published in the NIST ThermoML archive (doi:10.1021/je900134z).

Experiments:
[1] = refractive index (Na D-line) (dimensionless); settings: 101.33 kPa, Liquid
[2] = for mass density / viscosity: 101.33 kPa, Liquid; for viscosity: Surface Light Scattering; for surface tension liquid-gas: Drop weight

CCCCn1cc[n+](CCCC)c1.O=S(=O)([N-]S(=O)(=O)C(F)(F)F)C(F)(F)F
Settings | mass density [kg/m3] | refractive index | surface tension liquid-gas [mN/m] | viscosity [mPa·s]
[1], 283.15 K | – | 1.4376 | – | –
[1], 293.15 K | – | 1.4347 | – | –
[1], 303.15 K | – | 1.4324 | – | –
[1], 313.15 K | – | 1.4298 | – | –
[2], 273.15 K | 1362.73 | – | – | 277.9
[2], 278.15 K | 1358.06 | – | – | 203
[2], 283.15 K | 1353.51 | – | – | 152.1
[2], 288.15 K | 1349.01 | – | – | 115.3
[2], 293.15 K | 1344.5 | – | 29.55 | 89.5
[2], 298.15 K | 1340.01 | – | – | –
[2], 303.15 K | 1335.51 | – | – | 57.2
[2], 308.15 K | 1331.02 | – | – | –
[2], 313.15 K | 1326.56 | – | – | 37.9
[2], 318.15 K | 1322.09 | – | – | –
[2], 323.15 K | – | – | – | 26.5
[2], 328.15 K | 1313.2 | – | – | –
[2], 333.15 K | 1308.77 | – | – | 19.2
[2], 338.15 K | 1304.36 | – | – | –
[2], 343.15 K | 1299.99 | – | – | –
[2], 348.15 K | 1295.57 | – | – | –
[2], 353.15 K | 1291.2 | – | – | –
[2], 358.15 K | 1286.84 | – | – | –
[2], 363.15 K | 1282.5 | – | – | –

CCn1cc[n+](C)c1.CS(=O)(=O)[O-] [1-ethyl-3-methylimidazolium methanesulfonate]
Settings | mass density [kg/m3] | refractive index | surface tension liquid-gas [mN/m] | viscosity [mPa·s]
[1], 283.15 K | – | 1.5018 | – | –
[1], 293.15 K | – | 1.4996 | – | –
[1], 303.15 K | – | 1.4977 | – | –
[1], 313.15 K | – | 1.4949 | – | –
[2], 273.15 K | 1259.14 | – | – | 1112.6
[2], 278.15 K | 1255.59 | – | – | 676.3
[2], 283.15 K | 1252.04 | – | – | 435.5
[2], 288.15 K | 1248.49 | – | – | 290.1
[2], 293.15 K | 1244.96 | – | 50.72 | 205.2
[2], 298.15 K | 1241.52 | – | – | –
[2], 303.15 K | 1238.15 | – | – | 112.9
[2], 308.15 K | 1234.77 | – | – | –
[2], 313.15 K | 1231.4 | – | – | 69
[2], 318.15 K | 1228.03 | – | – | –
[2], 323.15 K | – | – | – | 44.6
[2], 328.15 K | 1221.33 | – | – | –
[2], 333.15 K | 1218 | – | – | 31.7
[2], 338.15 K | 1214.69 | – | – | –
[2], 343.15 K | 1211.38 | – | – | –
[2], 348.15 K | 1208.09 | – | – | –
[2], 353.15 K | 1204.82 | – | – | –
[2], 358.15 K | 1201.56 | – | – | –
[2], 363.15 K | 1198.31 | – | – | –

CCn1cc[n+](C)c1.CO[PH](=O)[O-] [1-ethyl-3-methylimidazolium methyl phosphonate]
Settings | mass density [kg/m3] | refractive index | surface tension liquid-gas [mN/m] | viscosity [mPa·s]
[1], 283.15 K | – | 1.4969 | – | –
[1], 293.15 K | – | 1.4935 | – | –
[1], 303.15 K | – | 1.4928 | – | –
[1], 313.15 K | – | 1.4902 | – | –
[2], 273.15 K | 1208.75 | – | – | 563.9
[2], 278.15 K | 1205.29 | – | – | 379.6
[2], 283.15 K | 1201.82 | – | – | 266.6
[2], 288.15 K | 1198.42 | – | – | 193.2
[2], 293.15 K | 1195.12 | – | 45.49 | 143.1
[2], 298.15 K | 1191.82 | – | – | –
[2], 303.15 K | 1188.5 | – | – | 83.4
[2], 308.15 K | 1185.21 | – | – | –
[2], 313.15 K | 1181.92 | – | – | 53.9
[2], 318.15 K | 1178.65 | – | – | –
[2], 323.15 K | 1175.39 | – | – | 36.4
[2], 328.15 K | 1172.14 | – | – | –
[2], 333.15 K | 1168.89 | – | – | 27.4
[2], 338.15 K | 1165.66 | – | – | –
[2], 343.15 K | 1162.45 | – | – | –
[2], 348.15 K | 1159.25 | – | – | –
[2], 353.15 K | 1156.06 | – | – | –
[2], 358.15 K | 1152.9 | – | – | –
[2], 363.15 K | 1149.73 | – | – | –

CCCCCCCCOS(=O)(=O)[O-].CCn1cc[n+](C)c1 [1-ethyl-3-methylimidazolium octyl sulfate]
Settings | mass density [kg/m3] | refractive index | surface tension liquid-gas [mN/m] | viscosity [mPa·s]
[1], 283.15 K | – | 1.4786 | – | –
[1], 293.15 K | – | 1.4766 | – | –
[1], 303.15 K | – | 1.4737 | – | –
[1], 313.15 K | – | 1.4712 | – | –
[2], 273.15 K | 1111.56 | – | – | 3894.8
[2], 278.15 K | 1108 | – | – | 2429.9
[2], 283.15 K | 1104.34 | – | – | 1578.5
[2], 288.15 K | 1100.82 | – | – | 1045.1
[2], 293.15 K | 1097.48 | – | 31 | 717.8
[2], 298.15 K | 1094.15 | – | – | –
[2], 303.15 K | 1090.83 | – | – | 368.1
[2], 308.15 K | 1087.52 | – | – | –
[2], 313.15 K | 1084.2 | – | – | 208.1
[2], 318.15 K | 1080.97 | – | – | –
[2], 323.15 K | – | – | – | 126.2
[2], 328.15 K | 1074.55 | – | – | –
[2], 333.15 K | 1071.34 | – | – | 80.9
[2], 338.15 K | 1068.14 | – | – | –
[2], 343.15 K | 1064.94 | – | – | –
[2], 348.15 K | 1061.76 | – | – | –
[2], 353.15 K | 1058.59 | – | – | –
[2], 358.15 K | 1055.42 | – | – | –
[2], 363.15 K | 1052.26 | – | – | –
